Here are results for 2 molecules from PMC5004101, “Broad Spectrum Anti-Influenza Agents by Inhibiting Self-Association of Matrix Protein 1” (Scientific Reports, 2016).

The target in series [1] is T1, M1 (matrix protein 1), recombinant N1-165 domain of WSN/33 (Influenza A virus (A/Wilson-Smith/1933(H1N1)), UniProt P05777).
T1 construct: gene M
Briefly: surface plasmon resonance, biotinylated M1 on NeutrAvidin chip. Type of series: binding. On the technique in general: SPR reads the build-up and loss of mass on a sensor chip optically.

Series [2] shares this target. Briefly: bio-layer interferometry, inhibition of M1-M1 self-association. Type of series: binding. For orientation: In BLI a coated tip is dipped into the sample, and binding shifts an interference pattern.
Series [3] concerns the molecule itself. Briefly: SPR; […], room temperature, pH 7.4; […].

The term Kd denotes a measure of binding affinity in units of concentration. As usually defined, the IC50 is the concentration that gives 50% inhibition. For `CCCc1c(OCCCOc2ccc(OCC(=O)O)cc2)ccc(C(C)=O)c1O` [PHE], the Kd in series [1] stood at 870 ± 150 nM. Moreover, the IC50 in series [2] was ~6000 nM.

B1: matrix protein 1 (M1) N-terminal domain, residues 1-165, of influenza A virus H1N1 A/WSN/33 (domain or fragment)
chain: MSLLTEVETYVLSIVPSGPLKAEIAQRLEDVFAGKNTDLEVLMEWLKTRPILSPLTKGILGFVFTLTVPSERGLQRRRFVQNALNGNGDPNNMDKAVKLYRKLKREITFHGAKEIALSYSAGALASCMGLIYNRMGAVTTEVAFGLVCATCEQIADSQHRSHRQM
notes: also called N1-165-domain of WSN/33; biotinylated M1
With B1, in series [3], the Kd stood at 0.05 ± 0.03 nM.
